One block for each compound: values may come before it. Where a SMILES comes first, the peptide text is derived from it. Where no end group is shown, it is not given here. [ ]: non-standard residue; d: D form. The star is where a group is joined. FITC = O=C1OC2(c3ccc(O)cc3Oc3cc(O)ccc32)c2ccc(NC(=S)*)cc21; pT = C[C@@H](OP(=O)(O)O)[C@H](N)C(=O)O; pS = N[C@@H](COP(=O)(O)O)C(=O)O
Experiments:
CLTC = molecular target: T1, CLTC (Homo sapiens, UniProt Q00610); test: FP competition, CLTC; assay type: binding; details: competitive FP assay
T1 construct: Q00610; CLTC; Clathrin propeller; 364; pETM33; Genescript; 6-His-GST; made in house; host or cells: Escherichia coli BL21(DE3) gold (stated for the bait preparation)
T1 sequence (Q00610 1-364): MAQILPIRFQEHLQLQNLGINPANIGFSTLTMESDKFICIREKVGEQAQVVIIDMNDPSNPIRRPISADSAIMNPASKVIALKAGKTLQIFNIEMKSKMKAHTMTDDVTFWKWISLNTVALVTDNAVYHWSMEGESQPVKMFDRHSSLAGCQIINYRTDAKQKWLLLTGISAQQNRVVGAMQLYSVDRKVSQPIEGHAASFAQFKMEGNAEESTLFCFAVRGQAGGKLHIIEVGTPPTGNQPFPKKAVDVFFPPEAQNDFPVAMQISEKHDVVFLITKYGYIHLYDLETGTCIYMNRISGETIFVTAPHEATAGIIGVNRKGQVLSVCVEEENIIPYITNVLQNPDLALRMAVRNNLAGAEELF

KPNA4 ARM [1] = molecular target: T2, KPNA4 ARM (Homo sapiens, UniProt O00629); test: FP saturation (direct binding of FITC probes), KPNA4 ARM
T2 construct: O00629; KPNA4; Arm; 68; 487; pETM33/pETM41; Genescript; made in house; host or cells: bacteria (E. coli BL21(DE3) gold is named only for the phage-selection preparations)

KPNB1 HEAT = molecular target: T3, KPNB1 HEAT (Homo sapiens, UniProt Q14974); test: FP saturation (direct binding of FITC probe), KPNB1 HEAT; details: direct binding of FITC-labeled probe, 10 nM in master mix, 50 mM KPO4 pH 7.5
T3 construct: Q14974; KPNB1; HEAT; 485; pETM41; Genescript; 6-His-MBP (from vector pETM41) (cleaved yes); made in house; host or cells: bacteria (E. coli BL21(DE3) gold is named only for the phage-selection preparations)

TLN1 PTB = molecular target: T4, TLN1 PTB (Homo sapiens, UniProt Q9Y490); test: FP saturation (direct binding of FITC probe), TLN1 PTB; details: Fig 3C; direct binding of FITC-labeled probe
T4 construct: Q9Y490; TLN1; PTB; 309; pHH0103; Sidhu Lab (PMID: 33438817); made in house; host or cells: bacteria (E. coli BL21(DE3) gold is named only for the phage-selection preparations)

SFN 14-3-3 [2] = molecular target: T5, SFN 14-3-3 (Homo sapiens, UniProt P31947); test: FP saturation (direct binding of FITC probe), SFN 14-3-3; set-up: P31947; SFN; 14-3-3; 236; pHH0103; Sidhu Lab (PMID: 33438817); made in house; host or cells: bacteria (E. coli BL21(DE3) gold is named only for the phage-selection preparations); details: direct binding of FITC-labeled phospho-RAF1 probe
T5 sequence (P31947 1-236): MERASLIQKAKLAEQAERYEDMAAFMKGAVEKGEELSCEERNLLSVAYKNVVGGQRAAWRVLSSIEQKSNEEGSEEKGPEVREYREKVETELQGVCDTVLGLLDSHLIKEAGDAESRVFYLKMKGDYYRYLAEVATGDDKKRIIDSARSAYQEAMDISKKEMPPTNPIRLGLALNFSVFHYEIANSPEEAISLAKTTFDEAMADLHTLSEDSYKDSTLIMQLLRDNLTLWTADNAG

SFN 14-3-3 [3] = molecular target: T5, SFN 14-3-3; test: FP competition, SFN 14-3-3
HEK293 cells = test: GFP-based NLS sensor (tri-GFP) cellular localization; assay type: cell-based, human; details: HEK293 cells transiently transfected, fixed 36 h after transfection, epifluorescence microscopy, DAPI; n = 3 independent experiments
Text: For the cell‐based NLS experiment, a pEGFP‐C1 vector was modified to contain two additional eGFP genes spaced by a linker region on the 3′ end of the vector's multiple cloning site (Appendix Fig S8). The modified vector is here called a “tri‐GFP vector”. DNA strands for tandem peptides to be tested for NLS function were constructed by PCR using overlapping primers that coded for the peptide sequences and also contained overlapping regions for the MCS in the tri‐GFP vector. The PCR products were then cloned into the tri‐GFP vector using Gibson Assembly® (New England Biolabs) following the manufacturer's recommendations. Obtained clones were verified by Sanger sequencing.
HEK293 cells were obtained from Sigma (Cat. 85120602) and cultured using DMEM with GlutaMAX™ Supplement (Gibco™) supplemented with 10% FBS (Gibco™) and Non‐Essential Amino Acids Solution (NEAA, Gibco™). Cultures were maintained at 37°C with 5% CO2 in humidified chambers and were routinely checked for mycoplasma contamination. For NLS experiments, cells were transfected using FuGENE® HD (Promega) according to manufacturer's instructions and using highly purified DNA samples. • Cells were then grown in eight‐well chamber slides. […]

KPNA4 ARM [4] = molecular target: T2, KPNA4 ARM; test: FP competition, KPNA4 ARM major pocket (FITC-Myc probe); assay type: binding
Text: Like other importins, KPNA4 has two distinct NLS‐binding pockets on the surface of an armadillo (ARM) repeat fold (major pocket, ARM 2–4; minor pocket, ARM 6–8; Fig 5B) (Smith et al, [2018]). Bipartite NLSs are usually 17–19 amino acids long and engage both pockets. Monopartite NLSs are short basic stretches, divided into five classes (Kosugi et al, [2009]): class I KR[KR]R or K[KR]RK, class II [PR]xxKR[^DE][KR] (where ^ indicates “not”), class III KRx[WFY]xxAF, class IV [RP]xxKR[KR][^DE], and class V LGKR[KR][WFY]. The class I and class II motifs preferentially interact with the major pocket (Kosugi et al, [2009]). In contrast, class III and class IV NLSs preferentially bind to the minor pocket. Using KPNA4 as a bait against the HD2 P8 library we identified 33 peptides found in 32 proteins. Of the 26 proteins for which information was available, 22 proteins were annotated as having nuclear or nucleolar localization in the UniProt database. To gain additional information we combined the data generated for KPNA4 by screening against the complete P8 HD2 library, with the results generated using two relevant sublibraries (the cytoplasmic and nuclear, and nuclear sublibraries) resulting in a set of 92 peptides containing NLS‐like sequences found in 76 proteins. Using these peptides we could generate consensus motifs that matched four of the previously reported NLS classes (Fig 5A; class I‐IV). […] Three peptides bound only to the major pocket. Eight peptides with class III motif and one KRxH‐containing peptide only bound to the minor pocket. Five peptides outcompeted both probe peptides, which may be explained by the amino acid sequence matching both class II and class III motifs (e.g., 1135‐ PSPKRKL ‐1139 in ZNF532; Fig 5), and possibly by cross specificity of the two binding pockets.

T2 sequence (O00629 68-487): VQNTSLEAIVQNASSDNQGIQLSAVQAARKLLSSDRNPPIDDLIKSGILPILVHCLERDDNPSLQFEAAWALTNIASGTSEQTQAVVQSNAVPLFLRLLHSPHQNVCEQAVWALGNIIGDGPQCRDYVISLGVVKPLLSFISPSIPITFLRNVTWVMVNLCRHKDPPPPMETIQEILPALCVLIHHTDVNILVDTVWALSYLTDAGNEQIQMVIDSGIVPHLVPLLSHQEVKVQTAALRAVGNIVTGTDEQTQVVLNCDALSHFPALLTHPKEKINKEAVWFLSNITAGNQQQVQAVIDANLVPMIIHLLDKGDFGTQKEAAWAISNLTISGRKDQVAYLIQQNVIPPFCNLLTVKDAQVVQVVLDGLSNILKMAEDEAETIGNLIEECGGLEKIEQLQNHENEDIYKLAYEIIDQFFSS
T4 sequence (Q9Y490 309-401): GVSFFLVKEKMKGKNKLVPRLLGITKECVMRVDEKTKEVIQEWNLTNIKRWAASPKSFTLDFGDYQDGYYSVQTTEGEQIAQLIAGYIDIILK
T3 sequence (Q14974 1-485): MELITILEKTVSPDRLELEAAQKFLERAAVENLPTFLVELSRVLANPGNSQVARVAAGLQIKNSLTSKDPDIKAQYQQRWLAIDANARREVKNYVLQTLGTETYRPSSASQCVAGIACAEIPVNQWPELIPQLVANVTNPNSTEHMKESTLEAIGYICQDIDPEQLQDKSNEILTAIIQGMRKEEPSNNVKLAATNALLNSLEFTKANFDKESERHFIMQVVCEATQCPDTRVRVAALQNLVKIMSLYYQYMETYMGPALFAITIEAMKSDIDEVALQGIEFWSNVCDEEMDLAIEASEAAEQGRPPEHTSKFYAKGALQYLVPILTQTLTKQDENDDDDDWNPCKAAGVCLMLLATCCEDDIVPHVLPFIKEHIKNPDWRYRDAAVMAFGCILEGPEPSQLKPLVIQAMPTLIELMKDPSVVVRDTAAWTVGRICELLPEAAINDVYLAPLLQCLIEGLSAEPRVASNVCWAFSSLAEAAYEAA

Compound: CC[C@H](C)[C@H](NC(=O)[C@H](CC(C)C)NC(=O)[C@@H]1CCCN1C(=O)[C@H](CC(C)C)NC(=O)[C@H](CC(=O)O)NC(=O)[C@@H](NC(=O)[C@H](CC(C)C)NC(C)=O)[C@@H](C)CC)C(=O)N[C@@H](CC(=O)O)C(=O)N[C@@H](Cc1ccccc1)C(=O)N[C@@H](CS)C(=O)N[C@@H](CC(=O)O)C(=O)N[C@H](C(=O)N1CCC[C@H]1C(=O)N[C@@H](CCC(=O)O)C(=O)N[C@@H](C)C(=O)N[C@@H](Cc1c[nH]cn1)C(=O)N[C@@H](Cc1ccc(O)cc1)C(=O)O)[C@@H](C)OP(=O)(O)O [GTSE1 pT] (Ac-LIDLPLIDFCD[pT]PEAHY-OH)
- IC50 (CLTC): 87 µM

Compound: CC[C@H](C)[C@H](NC(=O)[C@H](C)NC(=O)[C@H](CCCNC(=N)N)NC(=O)CNC(=O)[C@@H](NC(=O)[C@H](CCCNC(=N)N)NC(=O)CNC(=O)[C@H](CCC(=O)O)NC(=O)[C@H](CCSC)NC(=O)[C@H](CCSC)NC(=O)[C@H](CC(=O)O)NC(=O)[C@H](Cc1ccc(O)cc1)NC(=O)[C@@H](NC(=O)[C@H](CCCNC(=N)N)NC(=O)[C@H](CCCCN)NC(=O)[C@@H]1CCCN1C(=S)Nc1ccc2c(c1)C(=O)OC21c2ccc(O)cc2Oc2cc(O)ccc21)[C@@H](C)O)C(C)C)C(=O)O [NCOR2 FITC] ({FITC}-PKRTYDMMEGRVGRAI-OH)
- Kd (KPNA4 ARM [1]; Appendix Fig S7, saturation curves of FITC-labeled probes with KPNA4 ARM): 0.228 ± 0.011 µM

Compound: Ac-LIDLPLIDFCDTPEAHY [GTSE1]
- IC50 (CLTC): 97 µM

Compound: Ac-NEPTTPSWLADIPPWVP-NH2 [MAP1A]
- IC50 (SFN 14-3-3 [3]): 1970 µM

Compound: Ac-YKCRRQRQDQTLELVGL-NH2 [NKX2-5 K194R]
- NLS function: localization of the GFP-based NLS sensor fused to the peptide (HEK293 cells): cytoplasmic localization
- IC50 (KPNA4 ARM [4]; FP competition with FITC-Myc320-328 probe for the major pocket, 50 mM KPO4 pH 7.5, n = 3 technical replicates): 98 µM
- loss of affinity of KPNA4 binding, mutant versus wild-type (KPNA4 ARM [4]; FP competition with FITC-Myc probe, K194R versus wild-type): 10 fold

Compound: Ac-YVSGNLIDLCGNQGLP [MITF Y265C]
- IC50 (CLTC): 220 µM

Compound: Ac-YVSGNLIDLYGNQGLP [MITF]
- IC50 (CLTC): 150 µM

Compound: {FITC}-PAAKRVKLD [Myc, FITC-labeled Myc 320-328 probe for the KPNA4 major pocket]
- Kd (KPNA4 ARM [1]; direct binding of FITC-labeled probe, saturation with KPNA4 ARM): 0.03 µM

Second part, led by results:

- Kd (KPNB1 HEAT): 106 µM
Compound: CC(C)[C@H](NC(=O)[C@H](Cc1ccccc1)NC(=O)[C@@H](NC(=O)[C@H](C)NC(=O)[C@@H](NC(=S)Nc1ccc2c(c1)C(=O)OC21c2ccc(O)cc2Oc2cc(O)ccc21)C(C)C)[C@@H](C)O)C(=O)N[C@@H](Cc1ccccc1)C(=O)NCC(=O)N[C@@H](CCC(N)=O)C(=O)N[C@@H](CO)C(=O)N[C@@H](CO)C(N)=O [NUP153_FITC] ({FITC}-VATFVFGQSS-NH2)

- Kd (TLN1 PTB): 0.15 ± 0.04 µM
Compound: CC(C)C[C@H](NC(=O)[C@@H]1CCCN1C(=O)[C@H](CO)NC(=O)[C@H](Cc1ccc(O)cc1)NC(=O)[C@@H](NC(=O)[C@H](Cc1c[nH]c2ccccc12)NC(=O)[C@H](CO)NC(=O)[C@H](CCCNC(=N)N)NC(=O)[C@H](CCC(=O)O)NC(=O)[C@H](CC(=O)O)NC(=O)[C@@H](NC(=O)[C@@H]1CCCN1C(=O)[C@H](Cc1ccccc1)NC(=S)Nc1ccc2c(c1)C(=O)OC21c2ccc(O)cc2Oc2cc(O)ccc21)[C@@H](C)O)C(C)C)C(=O)N[C@@H](Cc1c[nH]cn1)C(=O)N[C@@H](Cc1ccc(O)cc1)C(=O)N[C@@H](CO)C(N)=O [PIP5K1C_FITC] ({FITC}-FPTDERSWVYSPLHYS-NH2)

- Kd (SFN 14-3-3 [2]): 524 µM
Compound: CC(C)[C@H](NC(=O)[C@H](CC(N)=O)NC(=O)[C@@H]1CCCN1C(=O)[C@@H](NC(=O)[C@H](COP(=O)(O)O)NC(=O)[C@@H](NC(=O)[C@H](CO)NC(=O)[C@H](CCCNC(=N)N)NC(=O)[C@H](CCC(N)=O)NC(=S)Nc1ccc2c(c1)C(=O)OC21c2ccc(O)cc2Oc2cc(O)ccc21)[C@@H](C)O)[C@@H](C)O)C(=O)N[C@@H](Cc1c[nH]cn1)C(N)=O [RAF_FITC] ({FITC}-QRST[pS]TPNVH-NH2)

- Ki (KPNA4 ARM [4]): 6.8 µM
Compound: Ac-YKCKRQRQDQTLELVGL-NH2 [NKX2-5 Wt]
- NLS function: localization of the GFP-based NLS sensor fused to the peptide (HEK293 cells): nuclear localization

From paper PMC8769072, “Proteome‐scale mapping of binding sites in the unstructured regions of the human proteome” (Molecular Systems Biology, 2022)
